The values that follow come from US12215100B2, “Anticancer compounds” (Pharma Mar, S.A., priority 2018, dated 2025).

Type in all cases: cell-based, human
Assay [1] has as its system PSN-1. Put plainly: SRB colorimetric cytotoxicity assay, PSN-1. Particulars: Homo sapiens, PSN1, 72 h, 72 hours treatment, pancreatic adenocarcinoma. The source says: (§1) The aim of this assay is to evaluate the in vitro cytostatic (ability to delay or arrest tumor cell growth) or cytotoxic (ability to kill tumor cells) activity of the samples being tested.
(§2) A colorimetric assay, using sulforhodamine B (SRB) reaction has been adapted to provide a quantitative measurement of cell growth and viability (following the technique described by V. Vichai and K. Kirtikara (2006) Nature Protoc. 1, 1112-1116.)
(§3) This form of assay employs 96-well cell culture microplates. All the cell lines used in this study were obtained from the American Type Culture Collection (ATCC), unless otherwise indicated, and derive from different types of human cancer.
(§4) Cells were maintained in Dulbecco's Modified Eagle Medium (DMEM) (for A549, HT-29 and MDA-MB-231) or RPMI (for PSN-1) supplemented with 10% Fetal Bovine Serum (FBS), 2 mM L-glutamine, 100 U/mL penicillin and 100 U/mL streptomycin at 37° C., 5% CO2 and 98% humidity. For the experiments, cells were harvested from subconfluent cultures using trypsinization and resuspended in fresh medium before counting and plating.
(§5) Cells were seeded in 96 well microtiter plates, at 5×10^3 cells per well in aliquots of 150 μL, and allowed to attach to the plate surface for 18 hours (overnight) in drug free medium. After that, one control (untreated) plate of each cell line was fixed (as described below) and used for time zero reference value. […] After 72 hours treatment, the antitumor effect was measured by using the SRB methodology: Briefly, cells were washed twice with PBS, fixed for 15 min in 1% glutaraldehyde solution at room temperature, rinsed twice in PBS, and stained in 0.4% SRB solution for 30 min at room temperature. Cells were then rinsed several times with 1% acetic acid solution and air-dried at room temperature. SRB was then extracted in 10 mM trizma base solution and the absorbance measured in an automated spectrophotometric plate reader at 490 nm. Effects on cell growth and survival were estimated by applying the NCI algorithm (Boyd M R and Pauli K D. Drug Dev Res. 1995, 34, 91-104).
(§6) Using the mean±SD of triplicates, a dose-response curve was automatically generated using nonlinear regression analysis to a 4-parameter logistic curve. Three reference parameters were calculated (NCI algorithm) by automatic interpolation: GI50=compound concentration that produces 50% cell growth inhibition, as compared to control cultures; TGI=total cell growth inhibition (cytostatic effect), as compared to control cultures, and LC50=compound concentration that produces 50% net cell killing (cytotoxic effect).

The subject of assay [2] is A549. Put plainly: SRB colorimetric cytotoxicity assay, A549. Particulars: Homo sapiens, A549, 72 h, 72 hours treatment, lung carcinoma (NSCLC).
Excerpt: as §1, §2, §3, §4, §5, §6

Assay [3] relates to MDA-MB-231. Put plainly: SRB colorimetric cytotoxicity assay, MDA-MB-231. Particulars: Homo sapiens, MDA-MB-231, 72 h, 72 hours treatment, breast adenocarcinoma.
Excerpt: as §1, §2, §3, §4, §5, §6

For assay [4], the system named is HT29. Put plainly: SRB colorimetric cytotoxicity assay, HT29. Particulars: Homo sapiens, HT-29, 72 h, 72 hours treatment, colorectal adenocarcinoma.
Excerpt: as §1, §2, §3, §4, §5, §6

Regarding `CCCCCCCCCCCCCCCCCOc1cc([C@@H](CCC)NC(=O)[C@]2(C)CSC(C(C)=O)=N2)oc(=O)c1` [Compound 62], the concentration for 50% growth inhibition (GI50) in assay [1] was 1640 nM; in assay [2] it was 1610 nM; in assay [3] it was 1690 nM; in assay [4], 1100 nM.
Regarding `C=CCOc1cc([C@@H](CCC)NC(=O)[C@]2(C)CSC(C(C)=O)=N2)oc(=O)c1` [Compound 63], the GI50 in assay [1] worked out at 408 nM; in assay [2], 815 nM; in assay [3] it was 484 nM; in assay [4], 510 nM.
In the same order, the values of `C#CCOc1cc([C@@H](CCC)NC(=O)[C@]2(C)CSC(C(C)=O)=N2)oc(=O)c1` [Compound 64] are 71.7 nM, 99.9 nM, 53.8 nM and 61.5 nM.
In the same order, the values of `CCC[C@@H](NC(=O)[C@]1(C)CSC(C(C)=O)=N1)c1cc(OCC2CC2)cc(=O)o1` [Compound 65] are 1250 nM, 1890 nM, 1030 nM and 1080 nM.
In the same order, the values of `C=Cc1cc([C@@H](CCC)NC(=O)[C@]2(C)CSC(C(C)=O)=N2)oc(=O)c1` [Compound 68] are 4690 nM, 11000 nM, 6620 nM and 9100 nM.
`COc1cc([C@@H](CC(C)C)NC(=O)[C@]2(C)CSC(/C(C)=N/O)=N2)oc(=O)c1` [Compound 69]: the GI50 in assay [1] came to 1520 nM; in assay [2], 2200 nM; in assay [3] it was 1620 nM; in assay [4], 1590 nM.
As to `COc1cc([C@@H](CC(C)C)NC(=O)[C@]2(C)CSC(/C(C)=N\O)=N2)oc(=O)c1` [Compound 69a], the GI50 in assay [1] came to 6320 nM; in assay [2], 5060 nM; in assay [3], 4550 nM; in assay [4], 3790 nM.
Take `CCC[C@@H](NC(=O)[C@]1(C)CSC(/C(C)=N/O)=N1)c1cc(OCC)cc(=O)o1` [Compound 70]: the GI50 in assay [1] is 14.9 nM; in assay [2], 14.4 nM; in assay [3] it was 23.8 nM; in assay [4], 14.9 nM.
With `CCCCOc1cc([C@@H](CCC)NC(=O)[C@]2(C)CSC(/C(C)=N/O)=N2)oc(=O)c1` [Compound 71], the 50% growth inhibitory concentration (GI50) worked out at 10.4 nM in assay [1], 7.08 nM in assay [2], 14.4 nM in assay [3] and 7.56 nM in assay [4].
On to `CCCCOc1cc([C@@H](CCC)NC(=O)[C@]2(C)CSC(/C(C)=N\O)=N2)oc(=O)c1` [Compound 71a], for which the GI50 in assay [1] is 30.7 nM; in assay [2] it was 16.5 nM; in assay [3], 35.4 nM; in assay [4], 17 nM.
`CCCCCCCOc1cc([C@@H](CCC)NC(=O)[C@]2(C)CSC(/C(C)=N/O)=N2)oc(=O)c1` [Compound 72]: the GI50 in assay [1] was determined as 21.5 nM; in assay [2], 25.8 nM; in assay [3], 30.1 nM; in assay [4] it was 30.1 nM.
Turning to `CCCCCCCOc1cc([C@@H](CCC)NC(=O)[C@]2(C)CSC(/C(C)=N\O)=N2)oc(=O)c1` [Compound 72a], the GI50 in assay [1] came out at 125 nM; in assay [2], 110 nM; in assay [3], 103 nM; in assay [4] it was 183 nM.
For `CCCCCCCCCCCCCCCCCOc1cc([C@@H](CCC)NC(=O)[C@]2(C)CSC(/C(C)=N/O)=N2)oc(=O)c1` [Compound 73], the GI50 in assay [1] was 347 nM; in assay [2] it was 380 nM; in assay [3], 330 nM; in assay [4], 396 nM.
As to `CCCCCCCCCCCCCCCCCOc1cc([C@@H](CCC)NC(=O)[C@]2(C)CSC(/C(C)=N\O)=N2)oc(=O)c1` [Compound 73a], the GI50 came out at 59.4 nM in assay [1], 64.4 nM in assay [2], 66 nM in assay [3] and 62.7 nM in assay [4].
Regarding `C=CCOc1cc([C@@H](CCC)NC(=O)[C@]2(C)CSC(/C(C)=N/O)=N2)oc(=O)c1` [Compound 74], the concentration for 50% growth inhibition (GI50) in assay [1] came out at 3.19 nM; in assay [2], 4.17 nM; in assay [3], 4.91 nM; in assay [4], 2.94 nM.

By GI50 is commonly meant the concentration giving 50% growth inhibition.
